Test results taken from publication PMC2408617, “Gametogenesis in Malaria Parasites Is Mediated by the cGMP-Dependent Protein Kinase” (PLoS Biology, 2008).
“Also recorded” adds a separate entry of the source.

How the values were obtained:
[1] = tested on: P. falciparum asexual blood stages; test: Asexual parasite growth inhibition, [3H]-hypoxanthine incorporation; type: cell-based, Plasmodium falciparum; details: unpublished data
Method: Asexual parasite growth assays were carried out to obtain the IC50 of test compounds using inhibition of incorporation of [^3H]-hypoxanthine, and to compare growth rates between transfected clones. Briefly, in 96-well plates, each test well was dosed at early trophozoite stage with 10 μl of [^3H]-hypoxanthine (GE Healthcare) to a final concentration of 0.2 μCi. The radioactivity of the [^3H]-hypoxanthine incorporated into parasite nucleic acid over 24 h was determined relative to the WT controls using a Wallac 1450 Microbeta scintillation β-counter (Perkin-Elmer). This assay was done in triplicate and repeated at least three times.

[2] = target: T1, PfPKGT618Q (Plasmodium falciparum, UniProt Q8I719, T618Q); test: Recombinant PKG activity assay, T618Q mutant; type: biochemical
T1 construct: The gene encoding full-length PfPKG was cloned into the pTrcHis expression plasmid (Invitrogen); His tag (from pTrcHis vector); made in house; host or cells: Escherichia coli
Source text: (§1) Figure 4 Substitution of a Key Active Site Threonine Residue Confers Compound 1 Insensitivity to Recombinant PfPKG (A) An alignment of regions of PfPKG in the ATP-binding pocket, thought to interact with compound 1, with those of other apicomplexans. Conserved active site residues highlighted in grey were predicted to approach compound 1 in a model of the Eimeria tenella PKG [29] (EtPKG). The threonine residue (T618), substituted in PfPKG in this study, is highlighted in grey and marked with an asterisk. Amino acid sequences are numbered to the right of the blocks of sequence. (B) Dose-response curves showing the effect of compound 1 on recombinant PKG enzyme activity assayed in the presence of 10 μM cGMP. Red diamonds indicate full-length WT PfPKG; black triangles, mutated PfPKG with T618 replaced by a glutamine residue; and blue squares, mutated PfPKG with T618 replaced by a methionine residue.
(§2) The activity of recombinant and native PKG was measured using a modification of standard procedures. The gene encoding full-length PfPKG was cloned into the pTrcHis expression plasmid (Invitrogen). Substitution of specific amino acids of PfPKG was carried out using a QuickChange Multi Site-Directed Mutagenesis kit (Stratagene) according to the manufacturer's instructions. Expression, affinity purification of E. coli–expressed recombinant proteins, and PKG activity assays were performed as previously described. All experiments were performed at least twice in triplicate. PKG measurements in native P. falciparum proteins were performed using an adaptation of a previously described assay. Briefly, ring stage parasites were exposed to 0.15% saponin solution in PBS to free the parasites from their host cells. […] Radiolabelled peptide was detected on 96-well multiscreen phosphocellulose plates (MAPH-NOB; Millipore) by scintillation counting on a Wallac 1450 Microbeta scintillation β-counter (Perkin-Elmer). […]

[3] = target: T2, PfPKGT618M (Plasmodium falciparum, UniProt Q8I719, T618M); test: Recombinant PKG activity assay, T618M mutant; type: biochemical; details: versus WT
T2 construct: The gene encoding full-length PfPKG was cloned into the pTrcHis expression plasmid (Invitrogen); His tag (from pTrcHis vector); made in house; host or cells: Escherichia coli
Source text: as §1
The activity of recombinant and native PKG was measured using a modification of standard procedures. The gene encoding full-length PfPKG was cloned into the pTrcHis expression plasmid (Invitrogen). […] Radiolabelled peptide was detected on 96-well multiscreen phosphocellulose plates (MAPH-NOB; Millipore) by scintillation counting on a Wallac 1450 Microbeta scintillation β-counter (Perkin-Elmer). […]

[4] = tested on: P. falciparum gametocytes (WT / Pfrh3- control); test: Gametogenesis assay: rounding up, WT/control gametocytes; type: cell-based, Plasmodium falciparum
Method: (§3) P. falciparum gametocytes were produced from the 3D7 clone in human A+ erythrocytes with 10% human serum (National Blood Service), and enriched using Nycodenz (Nycoprep 1.077; Axis-Shield) centrifugation as previously described. For gametogenesis, cells were resuspended at 5 × 10^6 parasites per millilitre and induced with either 20 μM XA or 25–400 μM zaprinast in complete medium, and a reduction (of >5 °C) in temperature. For gametogenesis assays, 10 min post induction, cells were mounted on a wet smear. […] Test reagents including zaprinast, BAPTA-AM, compound 1, and compound 2 were resuspended in DMSO as stock solutions and diluted in complete medium for gametogenesis assays, with the XA stock resuspended in RPMI 1640. The maximum final DMSO concentration in the gametogenesis medium was 0.4%, which was used as a negative control. […] Compound 1 and compound 2 were added at the point of activation with either XA or zaprinast, whereas cells were preincubated with 100 μM BAPTA-AM as previously described. Statistical multivariate analysis was carried out using Poisson regression (Stata 9.2; StataCorp) to compare the effects of genetic background (mutant vs. WT) and experimental replicate (included as categorical data in the analysis) on the rates of rounding up at individual drug concentrations. For each drug concentration, the mutants were tested separately against the WT control, and the resultant output was anti-logged to give the relative risk (and 95% confidence interval) for rounding up with genetic background.

[5] = tested on: PfPKGT618Q gametocytes; test: Gametogenesis assay: rounding up, PfPKGT618Q gametocytes; type: cell-based, Plasmodium falciparum; details: for RR, relative risk of rounding up, T618Q vs WT: Poisson regression
Method: as §3
(§4) Supplementary file pbio.0060139.st002.doc: Table S2 Poisson Regression Analysis for Compound 1 Sensitivity of Rounding Up of Both Mutants Compared to WT Each rounding-up measurement was made by counting 200 cells and scoring for rounding up (or not rounding up). At each compound 1 concentration, rounding-up replicate counts for both clones were compared to WT values separately by Poisson regression analysis using the Stata 9.2 package (StataCorp). Where n < 2 (indicated by n.d.), data were excluded from the analysis. Compound 1 concentration (comp1) is shown in micromolar. The p-values from this analysis and the relative risk (RR) of rounding up with genetic background (and 95% confidence intervals [CI]) are shown. (38 KB DOC) Click here for additional data file.

[6] = tested on: PfPKGT618M gametocytes; test: Gametogenesis assay: rounding up, PfPKGT618M gametocytes; type: cell-based, Plasmodium falciparum; details: for RR, relative risk of rounding up, T618M vs WT: Poisson regression
Method: as §3, §4

[7] = tested on: P. falciparum gametocytes; test: Gametogenesis assay: exflagellation; type: cell-based, Plasmodium falciparum
Method: as §3

[8] = tested on: cGMP-dependent kinase activity in P. falciparum lysates; test: Native cGMP-dependent kinase activity in cell lysates; type: biochemical, Plasmodium falciparum; details: control versus PfPKGT618Q lysates
Method: as §2, with “cells. Both gametocyte and ring stage parasite pellets were lysed in HBS buffer (50 mM Hepes [pH 7.4], 1 mM EDTA, 1% Nonidet P-40, 10 mM NaF, 0.1 mM sodium orthovanadate, 1 mM dithiotreitol) supplemented with a 1/100 dilution of Sigma-Aldrich Protease Inhibitor Cocktail. Parasite lysis was confirmed by microscopic examination of Giemsa-stained thin smears.” for “cells.”

[9] = tested on: Eimeria; details: cited from earlier work
[10] = tested on: T. gondii; details: cited from earlier work
[11] = tested on: P. berghei; details: cited from earlier work
[12] = 1–5 μM compound, XA stimulation

T1 sequence (Q8I719 whole entry T618Q): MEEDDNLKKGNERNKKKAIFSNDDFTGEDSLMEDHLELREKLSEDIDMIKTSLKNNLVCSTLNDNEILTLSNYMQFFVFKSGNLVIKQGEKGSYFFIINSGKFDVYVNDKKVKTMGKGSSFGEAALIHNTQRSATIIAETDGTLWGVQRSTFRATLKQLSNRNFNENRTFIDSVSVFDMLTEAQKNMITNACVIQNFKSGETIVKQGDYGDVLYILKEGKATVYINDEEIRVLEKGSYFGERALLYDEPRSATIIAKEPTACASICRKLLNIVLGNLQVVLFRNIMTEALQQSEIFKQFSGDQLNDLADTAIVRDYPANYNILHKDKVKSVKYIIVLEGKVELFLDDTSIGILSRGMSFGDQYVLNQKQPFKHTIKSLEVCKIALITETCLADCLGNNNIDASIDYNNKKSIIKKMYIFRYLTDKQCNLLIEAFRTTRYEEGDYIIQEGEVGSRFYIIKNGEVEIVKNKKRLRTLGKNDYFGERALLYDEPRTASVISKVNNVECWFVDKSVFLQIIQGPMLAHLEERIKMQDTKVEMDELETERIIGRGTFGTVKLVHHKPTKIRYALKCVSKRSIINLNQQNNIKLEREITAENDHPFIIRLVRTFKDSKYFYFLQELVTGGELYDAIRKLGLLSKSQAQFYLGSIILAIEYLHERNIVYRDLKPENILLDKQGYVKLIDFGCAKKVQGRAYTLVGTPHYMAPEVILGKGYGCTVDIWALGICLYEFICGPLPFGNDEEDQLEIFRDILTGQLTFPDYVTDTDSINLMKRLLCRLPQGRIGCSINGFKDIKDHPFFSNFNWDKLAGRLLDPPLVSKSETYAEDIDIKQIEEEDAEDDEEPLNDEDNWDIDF
T2 sequence (Q8I719 whole entry T618M): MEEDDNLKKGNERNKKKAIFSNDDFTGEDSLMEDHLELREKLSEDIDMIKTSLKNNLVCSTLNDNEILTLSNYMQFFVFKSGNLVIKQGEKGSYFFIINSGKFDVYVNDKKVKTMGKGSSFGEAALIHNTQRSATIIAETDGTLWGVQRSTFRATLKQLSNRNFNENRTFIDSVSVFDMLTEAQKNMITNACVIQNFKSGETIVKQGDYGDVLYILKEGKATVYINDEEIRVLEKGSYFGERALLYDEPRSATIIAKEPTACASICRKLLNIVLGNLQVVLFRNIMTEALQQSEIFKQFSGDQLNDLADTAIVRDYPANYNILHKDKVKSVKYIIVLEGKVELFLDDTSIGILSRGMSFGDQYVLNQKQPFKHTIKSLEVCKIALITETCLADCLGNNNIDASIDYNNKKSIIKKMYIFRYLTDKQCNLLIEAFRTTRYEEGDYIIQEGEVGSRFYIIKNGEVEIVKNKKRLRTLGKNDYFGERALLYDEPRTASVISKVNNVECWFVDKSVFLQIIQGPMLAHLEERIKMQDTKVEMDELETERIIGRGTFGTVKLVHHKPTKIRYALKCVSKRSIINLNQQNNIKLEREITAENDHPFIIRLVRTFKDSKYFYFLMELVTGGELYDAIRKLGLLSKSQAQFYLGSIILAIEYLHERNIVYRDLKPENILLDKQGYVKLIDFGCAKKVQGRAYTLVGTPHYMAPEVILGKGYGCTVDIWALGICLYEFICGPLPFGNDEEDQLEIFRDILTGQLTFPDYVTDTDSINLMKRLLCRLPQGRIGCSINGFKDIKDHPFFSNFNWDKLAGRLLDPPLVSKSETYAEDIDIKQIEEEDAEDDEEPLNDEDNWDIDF

CN1CCC(c2cc(-c3ccncc3)c(-c3ccc(F)cc3)[nH]2)CC1 [compound 1]
IC50 [1]: 2.7 ± 0.17 µM | IC50 ([2]; 10 μM cGMP, read-out: IC50, PfPKGT618Q recombinant enzyme): 17.8 ± 4.7 µM | less sensitive, PfPKGT618Q versus WT recombinant enzyme ([2]; ratio of IC50 values): over 3,000 times | decreased sensitivity conferred by T618Q in the recombinant protein ([2]; versus WT): > 3,000 fold | increase in sensitivity of T618M recombinant enzyme [3]: < 4 fold | gametocytes in which change of shape is prevented [4]: over 90% | rounding up of control gametocytes [4, 12]: reduced rounding up to background levels | inhibition of rounding up ([4]; control gametocytes stimulated with XA (or zaprinast)): inhibited by compound 1 in a dose-dependent manner | inhibitory effects on rounding up of PfPKGT618Q gametocytes ([5]; 2 μM, stimulation with zaprinast or XA): absence of inhibitory effects | rounding up of PfPKGT618Q gametocytes [5, 12]: rounded up to almost normal levels | RR, relative risk of rounding up, T618Q vs WT ([5]; compound 1 0.1 μM): 1.031 | RR, relative risk of rounding up, T618Q vs WT ([5]; compound 1 2 μM): 1.827 | RR, relative risk of rounding up, T618Q vs WT ([5]; compound 1 5 μM): 2.248 | RR, relative risk of rounding up, T618Q vs WT ([5]; compound 1 6 μM): 1.974 | RR, relative risk of rounding up, T618Q vs WT ([5]; compound 1 8 μM): 1.910 | RR, relative risk of rounding up, T618Q vs WT ([5]; compound 1 10 μM): 1.649 | RR, relative risk of rounding up, T618Q vs WT ([5]; compound 1 20 μM): 1.283 | lower sensitivity of PfPKGT618Q gametocytes than control cells (rounding up) ([5]; range of inhibitor concentrations, approximately): 10–20 fold | RR, relative risk of rounding up, T618M vs WT ([6]; compound 1 0.1 μM): 1.014 | RR, relative risk of rounding up, T618M vs WT ([6]; compound 1 2 μM): 1.020 | RR, relative risk of rounding up, T618M vs WT ([6]; compound 1 4 μM): 0.946 | RR, relative risk of rounding up, T618M vs WT ([6]; compound 1 5 μM): 1.010 | RR, relative risk of rounding up, T618M vs WT ([6]; compound 1 6 μM): 1.002 | RR, relative risk of rounding up, T618M vs WT ([6]; compound 1 20 μM): 0.861 | difference in sensitivity of PfPKGT618M line compared to control cells ([6]; rounding up and exflagellation): no significant difference in sensitivity | inhibition of exflagellation ([7]; gametocytes stimulated with XA or zaprinast): inhibited by compound 1 in a dose-dependent manner; also recorded: inhibited exflagellation in a dose-dependent manner | difference in sensitivity of exflagellation between control and PfPKGT618Q cell lines ([7]; unpublished data): no significant difference in sensitivity | sensitivity of cGMP-dependent kinase activity in control and mutant lysates [8]: equivalent levels of sensitivity | effect on Eimeria infection in chickens [9]: cure | effect on infection by T. gondii in mice [10]: cure | effect on P. berghei infections in mice [11]: delays the onset
